Experimental findings from US20220143183A1, “PHOTOSWITCHABLE PROTACS AND SYNTHESIS AND USES THEREOF” (New York University, priority 2019, published 2022) are described below.

A value given as a limit tells only on which side of the number the result lay.

Series [1] in a line: UV-Vis photoswitching and photostationary states (PSS). The series is classed as physicochemical. The text has this: The photoswitching and thermal relaxation properties of one of the lead compounds, PHOTAC-I-3, is shown in FIG. 3A-E. The optimal wavelength to switch to the cis isomer is 390 nm but similar photostationary states (PSS) can be obtained between 380 and 400 nm (FIG. 3C). At 390 nm a PSS of >90% cis could be obtained. Rapid cis to trans isomerization could be achieved by irradiation with wavelengths >450 nm, achieving PSS of ca >70% trans (FIG. 3C). […] Multiple cycles of photochemical isomerization are possible, in keeping with the fatigue-resistance of azobenzene photoswitches (FIG. 3E).
UV-Vis spectrometry was performed on a Varian Cary 60 UV-Visible Spectrophotometer using disposable BRAND UV-Cuvette Disposable Spectrophotometer/Photometer Ultra-Micro Cuvettes, BrandTech (10 mm light path), an Agilent Technologies PCB 1500 Water Peltier system for temperature control and samples were irradiated with a cairn research Optoscan Monochromator with Optosource High Intensity Arc Lamp equipped with a 75 W UXL-S50A lamp from USHIO Inc. Japan and set to 15 nm full width at half maximum.

The target of a further series is T1, BRD2 (Homo sapiens, UniProt P25440).
T1 construct: endogenous in cells; host or cells: RS4;11 (ATCC CRL-1873)
T1 sequence (P25440 whole entry): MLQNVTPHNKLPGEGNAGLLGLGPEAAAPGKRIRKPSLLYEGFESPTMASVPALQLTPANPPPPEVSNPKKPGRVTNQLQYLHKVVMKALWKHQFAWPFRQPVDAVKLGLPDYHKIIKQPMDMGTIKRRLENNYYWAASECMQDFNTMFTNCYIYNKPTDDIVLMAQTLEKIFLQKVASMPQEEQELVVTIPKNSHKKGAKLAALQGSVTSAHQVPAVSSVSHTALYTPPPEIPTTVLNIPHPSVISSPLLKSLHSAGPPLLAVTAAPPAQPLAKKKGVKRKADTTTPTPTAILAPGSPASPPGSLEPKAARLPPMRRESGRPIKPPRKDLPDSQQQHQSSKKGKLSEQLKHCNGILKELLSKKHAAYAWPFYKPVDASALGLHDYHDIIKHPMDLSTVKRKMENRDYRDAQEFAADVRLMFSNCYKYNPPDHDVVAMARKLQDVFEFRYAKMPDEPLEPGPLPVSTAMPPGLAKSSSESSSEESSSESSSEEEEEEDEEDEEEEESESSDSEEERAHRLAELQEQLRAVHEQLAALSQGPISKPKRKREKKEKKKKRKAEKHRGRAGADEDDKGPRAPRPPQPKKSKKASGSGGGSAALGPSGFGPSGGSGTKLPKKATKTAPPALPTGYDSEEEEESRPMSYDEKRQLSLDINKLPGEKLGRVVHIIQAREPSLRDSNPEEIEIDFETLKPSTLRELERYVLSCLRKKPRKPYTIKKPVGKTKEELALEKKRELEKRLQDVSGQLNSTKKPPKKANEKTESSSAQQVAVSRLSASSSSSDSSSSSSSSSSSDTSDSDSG
Briefly: Western blot of BRD2 levels in RS4;11 cells. The series is classed as cell-based. As to the method:
Next, the light dependence of targeted protein degradation was analyzed in RS4;11 cells by western blot analysis of the BET proteins BRD2-4 (FIG. 5). To this end, cells were treated with increasing concentrations of our lead compound, PHOTAC-I-3, for 4 h and pulse-irradiated with 390 nm light (100 ms every 10 s). […] The cereblon-dependent degradation was confirmed by a competition experiment (FIG. 5E), and further validated by siRNA knockdown of cereblon (FIG. 13).
One of the principal advantages of photoswitches over caged compounds is their reversibility.
Cells were incubated with different concentrations of selected compounds. They were placed in a light-proof box and preirradiated for 1 min at 390 nm followed by 100 ms pulses every 10 s or were kept in the dark for 4 h.
Cultured cells were collected by centrifugation and washed twice with cold PBS. The supernatant was removed and each cell pellet was lysed in 100 μL NP40-Cell-Lysis Buffer+0.1% SDS+1 mM PMSF+ protease inhibitor cocktail (Sigma Aldrich) for 30 min on ice, with vortexing at 10-minute intervals. Afterwards, cells were centrifuged at 13.000 rpm for 10 min at 4° C. Samples were stored on ice and the supernatant was collected for protein concentration determination using a Thermofisher Scientific Pierce™ Coomassie Plus (Bradford) Assay Kit.
The samples were diluted each with 5 μL Laemmli sample buffer Invitrogen (NuPAGE LDS Sample Buffer 4×) and 1 μL DTT, heated at 95° C. for 5 min. Respectively 20 μL of each sample was loaded in a lane of a Bio-Rad Mini-PROTEAN TGX precast Gel, 4-20%, used with tris-glycine SDS Running buffer. The gel ran 5 min at 50 V, then 35 min at 140 V. Next step was the electrotransfer to a polyvinylidene difluoride (PVDF) membrane which was carried out using an iBlot™ 2 Dry Blotting System set to the standard program. After the transfer, the membrane was washed with 25 mL TB ST for 5 min and subsequent incubated in 25 mL of blocking buffer (1×TBST+5% nonfat dry milk, Blotto, Santa Cruz Biotechnology) for 1 h at room temperature. […]
A general note: A western blot detects proteins with antibodies after separation by electrophoresis.

The target in series [2] is T2, BRD4 (Homo sapiens, UniProt O60885). Briefly: Immunoblot of BRD4 degradation in MB-MDA-231 cells. Also on record: Immunoblot analysis after treatment of MB-MDA-231 cells with PHOTAC-I-3 for 18 h at different concentrations; endogenous in cells; host or cells: MB-MDA-231 (A10) and MB-MDA-468 (A11) (so in the source). Conditions: 18 h, 390 nm pulses vs dark. The series is classed as cell-based. As to the method:
(§1) FIG. 10 depicts an immunoblot analysis of PHOTAC-I-3 A) Immunoblot analysis after treatment of MB-MDA-231 cells with PHOTAC-I-3 for 18 h at different concentrations. Cells were either irradiated with 100 ms pulses of 390 nm light every 10 s (left) or kept the dark (right). B) Immunoblot analysis after treatment of MB-MDA-468 cells with PHOTAC-I-3 for 18 h at different concentrations. Cells were either irradiated with 100 ms pulses of 390 nm light every 10 s (left) or kept the dark (right). (MWM, molecular weight marker). C) Immunoblot of BRD4 degradation in RS4;11 cells, promoted by PHOTAC-I-3 (300 nM) after 1 minute of irradiation (100 ms every 10 s), highlighting sustained degradation at the applied dosage.
(§2) Photoactivatable degraders and inhibitors of BRD4, c-MYC levels were also affected.

Series [3] concerns the target T2, BRD4. Briefly: Immunoblot of BRD4 degradation in MB-MDA-468 cells. Conditions: 18 h, 390 nm pulses vs dark. It counts as cell-based. More on the design: Immunoblot analysis after treatment of MB-MDA-231 cells with PHOTAC-I-3 for 18 h at different concentrations; endogenous in cells; host or cells: MB-MDA-231 (A10) and MB-MDA-468 (A11) (so in the source). As to the method: as §1, §2

As for `COc1cc(/N=N/c2cccc3c2CN(C2CCC(=O)NC2=O)C3=O)cc(OC)c1OCC(=O)NCCCCNC(=O)C[C@@H]1N=C(c2ccc(Cl)cc2)c2c(sc(C)c2C)-n2c(C)nnc21` (stereo partly drawn) [PHOTAC-I-3, 2-((S)-4-(4-chlorophenyl)-2,3,9-trimethyl-6H-thieno[3,2-f][1,2,4]triazolo[4,3-a][1,4]diazepin-6-yl)-N-(4-(2-(4-((E)-(2-(2,6-dioxopiperidin-3-yl)-1-oxoisoindolin-4-yl)diazenyl)-2,6-dimethoxyphenoxy)acetamido)butyl)acetamide], the “optimal wavelength to switch to the cis isomer” value in series [1] is reported as 390 nm. Moreover, the “photostationary state (PSS), cis fraction” value in series [1] (at 390 nm) was more than 90%. The “photostationary state (PSS), trans fraction” value in series [1] (irradiation with wavelengths >450 nm) is listed as more than 70%. Also, the “exposure time after which BRD2 is largely absent” value at BRD2 (1 μM, 390 nm pulse irradiation) was determined as 1.5 h. The “cellular BRD2 levels in rescue experiment” value at BRD2 (1 min 390 nm, then pulse irradiated with 525 nm) is recorded as “initially decreased but, subsequently, recovered faster than when left in the dark”. Moreover, the BRD2 degradation result on BRD2 (4 h, 390 nm, compared with BRD3 and BRD4) is “degraded to a lesser extent and within a narrower concentration range”. Besides, the BRD4 degradation result on BRD4 [2] and on BRD4 [3] was “light-dependent degradation of BRD4” throughout.
